Experimental data published in US20180230097A1, “PROCESS FOR PREPARATION OF APREMILAST AND NOVEL POLYMORPHS THEREOF” (LUPIN LIMITED, priority 2015, published 2018).

Columns and labels:
[1] = Solubility of Form M in various media; format: physicochemical; settings: water, hydrochloric acid, acetate Buffer, and phosphate Buffer at different pH
[2] = Polymorph stability under temperature/humidity storage (PXRD, FIG. 15 and 16); format: physicochemical; settings: 25° C. to 40° C. temperature, 5% to 75% humidity (RH); FIG. 15 25° C./60% RH/2M, FIG. 16 40° C./75% RH/2M
Experimental: The term “stable” with respect polymorph or to a drug dosage form, refers to the chemical and physical integrity of the polymorph or dosage unit and, when appropriate, the ability of the dosage unit to maintain protection against microbiological contamination.
The Form M of apremilast is stable at different set of conditions such as 25° C. to 40° C. temperature, 5% to 75% humidity (RH) for durations as depicted in FIG. 15 and FIG. 16.
Using a PANalytical X'Pert powder diffraction meter, the x-ray powder diffraction pattern was measured at room temperature using a Cu Ka filled tube (45 kV 40 mA) as the x-ray source. Data collection was done in 2theta continuous scan mode in the range of 3.5° to 40°.

For CCOc1cc(C(CS(C)(=O)=O)N2C(=O)c3cccc(NC(C)=O)c3C2=O)ccc1OC (centres unmarked) [Form M], the “solubility in various medium” value [1] was “good solubility” and the stability of polymorph [2] was “stable”.
